TGI and GI50 data for 16 molecules are collected here from PubChem BioAssay (NCI).

Where “and” joins values, the source holds several entries; their conditions need not be identical. Equal entries are not always repeated.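 Exposure lasted 48 hours, with cells grown in 96-well plates and compounds tested at five concentrations. GI50 = concentration required for 50% inhibition of growth. At the TGI there is no net growth.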

Among the test systems are DLD-1 colon; DMS 114 small cell lung; HOP-18 NSCLC; KM20L2 colon; M19-MEL melanoma; RXF-631 renal; SNB-78 CNS; XF 498 CNS; MDA-N; P388 leukemia; P388/ADR leukemia; SN12K1 renal.
Common to all, as to assay: NCI tumour cell line growth inhibition, 48 h

For `COC(=O)C1CC(=O)O[C@H]1c1ccc(OC)c(OC)c1` (some centres not stated), the TGI with DLD-1 colon, with DMS 114 small cell lung, in the experiment on HOP-18 NSCLC, in the experiment on KM20L2 colon, with M19-MEL melanoma and in the experiment with RXF-631 renal was above 100 µM throughout. Further, the TGI with SNB-78 CNS and in the experiment with XF 498 CNS was above 100 µM throughout.

In the case of `CNS(=O)(=O)NNS(=O)(=O)c1ccc(C)cc1`, the TGI in the experiment on DLD-1 colon, with DMS 114 small cell lung, in the experiment on KM20L2 colon and with M19-MEL melanoma was above 100 µM in each case.

Take `COC1=CC(=O)C(O)=C(CC2(C)C(C)CCC3(C)C2CCCC3(C)C)C1=O` (configuration not stated): the TGI is 45.1 µM in the experiment with DLD-1 colon; 8.99 µM in the experiment on DMS 114 small cell lung; 13 µM with HOP-18 NSCLC; 13.2 µM in the experiment on KM20L2 colon; 7.07 µM in the experiment on M19-MEL melanoma; above 100 µM with RXF-631 renal. Further, the TGI was above 100 µM in the experiment on SNB-78 CNS and 22.4 µM in the experiment on XF 498 CNS.

For the molecule `Nc1ccccc1C(=O)/C=C/c1ccccc1O`, the TGI with DLD-1 colon, in the experiment with DMS 114 small cell lung, in the experiment with HOP-18 NSCLC, in the experiment with KM20L2 colon, with M19-MEL melanoma and with RXF-631 renal was above 100 µM each time. Further, the TGI in the experiment with SNB-78 CNS and in the experiment on XF 498 CNS was above 100 µM each time.

For the molecule `COC(=O)N/N=C(\C)c1sc(-c2nc(C)c(/C(C)=N/NC(=O)OC)s2)nc1C`, the TGI in the experiment with DLD-1 colon, with DMS 114 small cell lung, in the experiment with HOP-18 NSCLC, in the experiment on KM20L2 colon, in the experiment with M19-MEL melanoma and in the experiment on RXF-631 renal was above 100 µM each time. For the same molecule, the TGI with SNB-78 CNS was above 100 µM.

Take `ON1CCc2c([nH]c3ccccc23)C1c1ccc(Cl)cc1` (configuration not stated): the TGI with DLD-1 colon is above 100 µM; with DMS 114 small cell lung it was above 100 µM; with KM20L2 colon it was 77.5 µM; in the experiment on M19-MEL melanoma, above 100 µM; in the experiment with SNB-78 CNS, above 100 µM; with XF 498 CNS, 57.6 µM.

For the molecule `CC(C)(C)C1CC[C@H]2c3c([nH]c4ccccc34)[C@H]3C(=O)N(c4ccc(F)cc4)C(=O)[C@H]3[C@H]2C1` (some centres not stated), the TGI in the experiment on DLD-1 colon is 37.4 µM; with DMS 114 small cell lung, 38 µM; with HOP-18 NSCLC, 34.4 µM; with KM20L2 colon it was 46.5 µM; in the experiment with M19-MEL melanoma it was 34.7 µM; in the experiment with SNB-78 CNS, 36.8 µM. Further, in the experiment with XF 498 CNS, the TGI came to 32.3 µM.

Turning to `C=C(C)c1nc(Oc2ccccc2)nc(Oc2ccccc2)n1`, the TGI was determined as 6.62 µM in the experiment with DLD-1 colon; 8.79 µM with DMS 114 small cell lung; 30.2 µM in the experiment with HOP-18 NSCLC; 26.7 µM in the experiment with KM20L2 colon; 7.93 µM with M19-MEL melanoma; 14.8 µM in the experiment on MDA-N. The TGI in the experiment on P388 leukemia came out at 3.63 µM; with P388/ADR leukemia, 2.7 µM; in the experiment on RXF-631 renal, 13.5 µM; with SN12K1 renal, 8.88 µM; with SNB-78 CNS, 26.8 µM; in the experiment with XF 498 CNS, 13 µM.

On to `CN(C)c1ccc(/C=C2\CCc3ccccc3C2=O)cc1Br`, for which the TGI with DLD-1 colon, in the experiment with HOP-18 NSCLC, in the experiment on KM20L2 colon, in the experiment on M19-MEL melanoma, with SNB-78 CNS and in the experiment with XF 498 CNS was above 100 µM throughout.

Consider `COc1nc(N)nc2nc[nH]c12`, for which the GI50 was 655 µM in the experiment with DLD-1 colon; above 800 µM in the experiment with DMS 114 small cell lung; 641 µM with HOP-18 NSCLC; above 800 µM in the experiment with KM20L2 colon; above 800 µM with M19-MEL melanoma; 760 µM in the experiment with MDA-N. The GI50 with SNB-78 CNS is 684 µM. Besides, the TGI is 500 µM and 800 µM in the experiment on DLD-1 colon; 500 µM and > 800 µM in the experiment on DMS 114 small cell lung; 499 µM and 800 µM in the experiment with HOP-18 NSCLC; above 800 µM in the experiment on KM20L2 colon; above 800 µM in the experiment on M19-MEL melanoma; above 1000 µM in the experiment on MDA-N. Also, the TGI is 500 µM in the experiment with P388 leukemia; 500 µM with P388/ADR leukemia; 800 µM in the experiment with RXF-631 renal; 500 µM in the experiment on SN12K1 renal; 500 µM and 800 µM in the experiment on SNB-78 CNS; 498 µM in the experiment with XF 498 CNS.

Turning to `N=C(N)SCc1ccc(Cl)c2ccccc12` (tested in a mixture with another compound), the TGI in the experiment with MDA-N was 23.4 µM and 24.8 µM.

On to `CN(C)CCNC(=O)c1cccc2c1nc(-c1cccnc1)c1ccccc12`, for which the TGI in the experiment with DLD-1 colon was 21.2 µM; in the experiment on DMS 114 small cell lung, 18.8 µM; in the experiment on HOP-18 NSCLC, 64 µM; with M19-MEL melanoma, 18.5 µM; with RXF-631 renal, 16.7 µM; with SNB-78 CNS, 26.3 µM.

With `CC(C)CCCC(C)C1CCC2C3CC([N+](=O)[O-])=C4CC(O)CCC4(C)C3CCC12C` (configuration not stated), the TGI with DLD-1 colon turned out to be 35.9 µM; in the experiment on DMS 114 small cell lung it was 45.7 µM; in the experiment with KM20L2 colon, 34.7 µM; in the experiment on M19-MEL melanoma, 73.3 µM; in the experiment with XF 498 CNS, 37.1 µM.

For `O=C1c2ccccc2C2(O)N(c3ccccc3)C(=S)N(c3ccccc3)C12O` (configuration not stated), the TGI with DLD-1 colon, in the experiment with DMS 114 small cell lung, with HOP-18 NSCLC, in the experiment with KM20L2 colon, in the experiment with M19-MEL melanoma and in the experiment with RXF-631 renal was above 100 µM in each case. In the experiment on SNB-78 CNS, this molecule had a TGI above 100 µM.

On to `Cc1ccccc1NC(=O)C1C(=O)N(c2ccccc2C)C(=O)/C1=N\NC(N)=O` (configuration not stated), for which the TGI with DLD-1 colon, with DMS 114 small cell lung, in the experiment on HOP-18 NSCLC, in the experiment with KM20L2 colon, in the experiment with M19-MEL melanoma and with SNB-78 CNS was above 100 µM throughout.

Turning to `O=c1c2cc(Br)ccc2nc(CNc2ccccc2)n1-c1ccccc1`, the TGI in the experiment with DLD-1 colon is 21.6 µM; in the experiment on DMS 114 small cell lung, 25.6 µM; with HOP-18 NSCLC, above 53.3 µM; with KM20L2 colon, above 100 µM; in the experiment with M19-MEL melanoma, 29.7 µM; with SNB-78 CNS it was 57.9 µM. This molecule displayed a TGI with XF 498 CNS of 29.1 µM.
